Among the data in ChEMBL document CHEMBL1129398, “Non-peptide glycoprotein IIb/IIIa antagonists. 11. Design and in vivo evaluation of 3,4-dihydro-1 (1H)-isoquinolinone-based antagonists and ethyl ester prodrugs” (J Med Chem, 1996) are inhibition in vivo, IC50 and T max values, retold here.

For series [1], the system named is Canis familiaris. Briefly: Effect on inhibition of the extent of ex vivo ADP-induced aggregation in canine platelet rich plasma at dose of 0.1 mg/kg po. Type of series: functional. Conditions: Canis lupus familiaris.
Series [2] deals with Canis familiaris. Briefly: Effect on inhibition of the extent of ex vivo ADP-induced aggregation in canine platelet rich plasma at dose of 0.3 mg/kg po. Format: functional. The conditions noted are these: Canis lupus familiaris.
The subject of series [3] is Canis familiaris. Briefly: Effect on inhibition of the extent of ex vivo ADP-induced aggregation in canine platelet rich plasma at dose of 0.5 mg/kg po. Type of series: functional. Conditions: Canis lupus familiaris.
The species named for series [4] is Homo sapiens. Briefly: in vitro inhibition of human gel-filtered platelets. Format: functional.
For series [5], the species on record is Homo sapiens. Briefly: in vitro inhibition of human gel-filtered platelets using ADP agonist. Type of series: functional.
For series [6], the system named is Canis familiaris. Put plainly: Tmax was measured by calculating maximum time taken for ADP -induced platelet aggregation in canine platelet rich plasma at dose of 0.5 mg/kg po; Tmax hours. Format: ADME, organism-based, Canis lupus familiaris. Also noted: dose 0.5 mg/kg. The conditions noted are these: dog, in vivo.
The species named for series [7] is Homo sapiens. Put plainly: In vitro inhibition of human gel-filtered platelets. Format: functional.
Series [8] relates to Canis familiaris. Briefly: Tmax was measured by calculating maximum time taken for ADP -induced plat let aggregation n canine platelet rich plasma at dose of 0.5 mg/kg po; Tmax hours. Format: ADME, organism-based, Canis lupus familiaris. Set-up: dose 0.5 mg/kg. The conditions noted are these: dog, in vivo.

Some results are limits rather than exact numbers.

A word on the inhibition in vivo: it is the drop in the measured response relative to a control, in per cent. High values mean strong suppression, low ones little suppression. `C#C[C@H](CC(=O)OCC)NC(=O)Cn1c(=O)[nH]c2ccc(N3CCNCC3)cc2c1=O`: the inhibition in vivo at 0.1 mg/kg in series [1] was determined as 0%.
In series [2], `C#C[C@H](CC(=O)OCC)NC(=O)CN1CCc2cc(F)c(N3CCNCC3)cc2C1=O` gave an inhibition in vivo at 0.3 mg/kg of 100%.
A word on the IC50: it is the concentration needed to halve the response being measured. Regarding `C[C@H](CC(=O)O)NC(=O)CN1CCc2ccc(N3CCNCC3)cc2C1=O`, in series [3], the inhibition in vivo at 0.5 mg/kg was 100%. Besides, the half-maximal inhibitory concentration (IC50) in series [4] was 30 nM.
`C#C[C@H](CC(=O)O)NC(=O)CN1CCc2ccc(-c3ccncc3)cc2C1=O` came in with an IC50 in series [5] of 160 nM.
Molecule `C#C[C@H](CC(=O)O)NC(=O)CN1CCc2ccc(N3CCNCC3)cc2C1` registered an IC50 in series [4] of 320 nM.
Take `C#C[C@H](CC(=O)O)NC(=O)Cn1c(=O)[nH]c2ccc(N3CCNCC3)cc2c1=O`: in series [3], testing at 0.5 mg/kg gave an inhibition in vivo of 0%. In series [5], the IC50 was determined as 27 nM.
In the case of `CCOC(=O)C[C@H](NC(=O)CN1CCc2ccc(N3CCNCC3)cc2C1=O)c1cccnc1`, in series [6], the T max is on record as 2.5. In addition, in series [3], testing at 0.5 mg/kg gave an inhibition in vivo of 75%.
Molecule `C#C[C@H](CC(=O)OCC)NC(=O)CN1CCc2ccc(C3CCNCC3)cc2C1=O` showed an inhibition in vivo at 0.3 mg/kg in series [2] of 40%.
`N[C@@H](CNC(=O)CN1CCc2ccc(N3CCNCC3)cc2C1=O)C(=O)O`: the IC50 in series [4] was 630 nM.
Turning to `C#C[C@H](CC(=O)O)NC(=O)Cn1cnc2ccc(N3CCNCC3)cc2c1=O`, the half-inhibitory concentration (IC50) in series [5] was 330 nM.
Molecule `C#C[C@H](CC(=O)O)NC(=O)CN1CCc2ccc(N3CCNCC3)c(Cl)c2C1=O` returned an IC50 in series [4] of 35 nM.
Molecule `C#C[C@H](CC(=O)O)NC(=O)Cn1ccc2ccc(N3CCNCC3)cc2c1=O` gave an IC50 in series [5] of 81 nM.
`C#C[C@H](CC(=O)O)NC(=O)CN1CCc2ccc(C3CCNCC3)cc2C1=O` had an inhibition in vivo at 0.3 mg/kg in series [2] of 100%. The molecule also had an IC50 in series [4] of 6 nM.
As for `C#C[C@H](CC(=O)OCC)NC(=O)CN1CCc2ccc(N3CCNCC3)c(Cl)c2C1=O`, in series [3], the inhibition in vivo at 0.5 mg/kg is 100%.
`C#C[C@H](CC(=O)O)NC(=O)CN1CCc2cc(Cl)c(N3CCNCC3)cc2C1=O`: at 0.5 mg/kg the inhibition in vivo in series [3] was 80%. Moreover, it took 19 nM to reach half-maximal inhibition in series [4] (IC50).
Taken in the same sequence, the figures for `O=C(O)C[C@@H](CCc1ccccc1)NC(=O)CN1CCc2ccc(N3CCNCC3)cc2C1=O` were 20% and 16 nM.
`O=C(O)C[C@H](NC(=O)CN1CCc2ccc(N3CCOCC3)cc2C1=O)c1cccnc1` displayed a half-inhibitory concentration (IC50) in series [5] of more than 300000 nM.
The molecule `C#C[C@H](CC(=O)O)NC(=O)CN1CCc2cc(F)c(N3CCNCC3)cc2C1=O` returned an inhibition in vivo at 0.5 mg/kg in series [3] of 95%. This molecule came in with a half-maximal inhibitory concentration (IC50) in series [4] of 15 nM.
With `O=C(O)C[C@H](NC(=O)CN1CCc2ccc(N3CCNCC3)cc2C1=O)c1ccc[n+]([O-])c1`, the IC50 in series [4] is 18 nM.
As for `C#C[C@H](CC(=O)O)NC(=O)CN1CCc2ccc(N3CCNCC3)cc2C1=O`, in series [2], the inhibition in vivo at 0.3 mg/kg came to 80%. For the same molecule, the IC50 in series [4] came out at 12 nM.
Molecule `O=C(O)CCNC(=O)CN1CCc2ccc(N3CCNCC3)cc2C1=O` showed an IC50 in series [7] of 140 nM.
Regarding `O=C(O)C[C@H](NC(=O)CN1CCc2ccc(N3CCNCC3)cc2C1=O)c1cccnc1`, the T max in series [8] is reported as 1. Moreover, the inhibition in vivo at 0.5 mg/kg in series [3] came to 100%. Further, the IC50 in series [5] was 13 nM.
